Laboratory results reported in PMC8566089 (Bioorganic Chemistry, 2021).
Read-outs that look alike come from different tables or passages of the source.

Tests used:
[1] = test system: HCT116 (colon) cancer cell line; experiment: MTT antiproliferative assay, HCT116; assay type: cell-based; conditions: for IC50: Homo sapiens, HCT-116, 72 h, read-out: IC50 ± SE, HCT116; for SI (selectivity index), HCT116: IC50 of RPE1 relative to that of HCT116
[2] = test system: SARS-CoV-2 (hCoV-19/Egypt/NRC-03/2020); conditions: SARS-CoV-2 / VERO-E6
VEGFR-2 [3] = molecular target: T1, VEGFR-2 (Homo sapiens, UniProt P35968); experiment: VEGFR-2 Western blot in HCT116; assay type: cell-based; conditions: for VEGFR2 HCT116 % Inhibition: Western blot at MTT-IC50; for VEGFR2 HCT116 RQ (relative quantification): Western blot at MTT-IC50, control RQ 3.817
T1 sequence (P35968 20-1356): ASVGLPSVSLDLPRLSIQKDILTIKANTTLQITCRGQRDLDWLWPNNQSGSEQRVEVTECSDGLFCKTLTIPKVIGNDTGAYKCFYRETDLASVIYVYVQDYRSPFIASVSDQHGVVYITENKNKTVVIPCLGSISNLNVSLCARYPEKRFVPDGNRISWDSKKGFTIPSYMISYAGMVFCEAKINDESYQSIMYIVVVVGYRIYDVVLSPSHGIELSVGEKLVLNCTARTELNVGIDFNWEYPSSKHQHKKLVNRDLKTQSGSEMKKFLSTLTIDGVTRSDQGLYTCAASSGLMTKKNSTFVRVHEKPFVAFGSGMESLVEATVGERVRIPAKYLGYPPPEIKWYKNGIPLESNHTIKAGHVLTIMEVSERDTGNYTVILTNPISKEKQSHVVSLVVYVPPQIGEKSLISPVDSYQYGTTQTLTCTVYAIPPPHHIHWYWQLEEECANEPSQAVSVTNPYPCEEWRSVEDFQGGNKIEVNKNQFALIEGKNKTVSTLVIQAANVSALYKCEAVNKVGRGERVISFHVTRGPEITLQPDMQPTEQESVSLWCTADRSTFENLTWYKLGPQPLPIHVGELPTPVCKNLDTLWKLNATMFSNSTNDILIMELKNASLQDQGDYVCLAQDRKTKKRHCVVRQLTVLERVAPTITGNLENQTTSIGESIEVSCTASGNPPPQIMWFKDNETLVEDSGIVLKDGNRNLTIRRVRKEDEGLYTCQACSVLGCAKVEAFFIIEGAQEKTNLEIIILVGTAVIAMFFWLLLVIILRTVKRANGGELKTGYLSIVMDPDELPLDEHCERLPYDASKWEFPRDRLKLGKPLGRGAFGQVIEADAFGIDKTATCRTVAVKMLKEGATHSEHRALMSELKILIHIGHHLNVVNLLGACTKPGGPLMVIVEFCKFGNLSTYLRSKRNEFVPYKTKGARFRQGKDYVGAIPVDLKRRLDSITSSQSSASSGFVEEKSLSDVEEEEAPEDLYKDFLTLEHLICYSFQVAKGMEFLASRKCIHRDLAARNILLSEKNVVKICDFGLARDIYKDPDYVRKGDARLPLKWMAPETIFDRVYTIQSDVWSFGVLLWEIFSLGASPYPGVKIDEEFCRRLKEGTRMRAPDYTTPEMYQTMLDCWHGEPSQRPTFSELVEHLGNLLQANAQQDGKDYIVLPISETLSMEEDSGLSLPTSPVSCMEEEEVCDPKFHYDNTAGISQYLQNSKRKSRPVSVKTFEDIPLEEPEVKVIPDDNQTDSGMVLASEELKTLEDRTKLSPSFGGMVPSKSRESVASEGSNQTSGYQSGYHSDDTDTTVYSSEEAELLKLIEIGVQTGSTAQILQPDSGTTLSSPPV

[4] = test system: RPE1 (normal human immortalized retinal pigment epithelial cell line); experiment: MTT assay against normal RPE1 cells; assay type: cell-based; conditions: RPE-1, read-out: IC50 ± SE, RPE1
COX-1 = molecular target: T2, COX-1 (Ovis aries, UniProt P05979); experiment: COX-1 inhibitor screening kit; assay type: biochemical
T2 sequence (P05979 25-600): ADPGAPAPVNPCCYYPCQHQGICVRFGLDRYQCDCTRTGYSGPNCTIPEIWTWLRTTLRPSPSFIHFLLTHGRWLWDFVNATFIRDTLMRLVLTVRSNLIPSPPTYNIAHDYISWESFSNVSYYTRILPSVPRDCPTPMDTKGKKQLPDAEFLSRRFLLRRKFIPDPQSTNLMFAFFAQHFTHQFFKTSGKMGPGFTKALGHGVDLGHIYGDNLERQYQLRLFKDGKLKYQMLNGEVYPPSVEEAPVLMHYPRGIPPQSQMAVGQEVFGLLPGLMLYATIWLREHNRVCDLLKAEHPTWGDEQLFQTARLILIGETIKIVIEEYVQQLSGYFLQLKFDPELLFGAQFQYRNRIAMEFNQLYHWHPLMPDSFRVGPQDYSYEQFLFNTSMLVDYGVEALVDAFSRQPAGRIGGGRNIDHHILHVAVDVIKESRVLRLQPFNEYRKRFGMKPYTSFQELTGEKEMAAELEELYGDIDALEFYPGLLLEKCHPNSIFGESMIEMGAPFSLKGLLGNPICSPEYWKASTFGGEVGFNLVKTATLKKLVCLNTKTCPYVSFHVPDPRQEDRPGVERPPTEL

EGFR [5] = molecular target: T3, EGFR (Homo sapiens, UniProt P00533); experiment: EGFR Western blot in MCF7; assay type: cell-based; conditions: for EGFR MCF7 % Inhibition: Western blot at MTT-IC50; for EGFR MCF7 RQ (relative quantification): Western blot at MTT-IC50, control RQ 4.226
T3 sequence (P00533 25-1210): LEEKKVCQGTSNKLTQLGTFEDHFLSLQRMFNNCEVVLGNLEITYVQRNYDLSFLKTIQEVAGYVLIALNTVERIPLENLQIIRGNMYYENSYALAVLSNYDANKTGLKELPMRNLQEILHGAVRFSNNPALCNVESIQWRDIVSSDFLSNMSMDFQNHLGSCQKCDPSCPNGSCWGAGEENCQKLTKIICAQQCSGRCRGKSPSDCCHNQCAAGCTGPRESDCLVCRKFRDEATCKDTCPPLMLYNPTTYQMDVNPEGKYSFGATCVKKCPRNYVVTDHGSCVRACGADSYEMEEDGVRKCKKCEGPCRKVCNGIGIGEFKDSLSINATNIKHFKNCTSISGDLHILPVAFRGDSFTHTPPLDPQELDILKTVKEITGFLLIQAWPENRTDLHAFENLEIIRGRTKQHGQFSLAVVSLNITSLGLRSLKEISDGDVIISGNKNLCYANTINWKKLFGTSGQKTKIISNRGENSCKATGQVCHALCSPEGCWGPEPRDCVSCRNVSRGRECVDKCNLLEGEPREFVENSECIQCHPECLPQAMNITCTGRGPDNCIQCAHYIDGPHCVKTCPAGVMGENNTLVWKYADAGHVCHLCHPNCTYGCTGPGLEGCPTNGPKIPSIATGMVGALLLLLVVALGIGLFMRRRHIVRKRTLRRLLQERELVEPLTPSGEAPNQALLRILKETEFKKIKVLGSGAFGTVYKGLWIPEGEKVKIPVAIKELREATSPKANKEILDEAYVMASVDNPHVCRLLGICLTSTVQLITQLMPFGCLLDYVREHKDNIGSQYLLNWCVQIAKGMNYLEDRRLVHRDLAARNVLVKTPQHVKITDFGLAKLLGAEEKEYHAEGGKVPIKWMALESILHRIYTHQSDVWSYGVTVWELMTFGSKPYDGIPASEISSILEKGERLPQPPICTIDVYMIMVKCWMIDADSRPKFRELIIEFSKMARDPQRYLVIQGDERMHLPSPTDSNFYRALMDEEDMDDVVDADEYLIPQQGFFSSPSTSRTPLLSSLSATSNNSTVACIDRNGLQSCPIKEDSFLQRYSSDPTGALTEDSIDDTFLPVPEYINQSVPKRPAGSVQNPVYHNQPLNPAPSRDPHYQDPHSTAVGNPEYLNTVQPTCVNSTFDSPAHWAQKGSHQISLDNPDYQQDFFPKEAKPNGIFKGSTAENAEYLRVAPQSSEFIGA

VEGFR-2 [6] = molecular target: T1, VEGFR-2; experiment: VEGFR-2 Western blot in MCF7; assay type: cell-based; conditions: for VEGFR2 MCF7 % Inhibition: Western blot at MTT-IC50; for VEGFR2 MCF7 RQ (relative quantification): Western blot at MTT-IC50, control RQ 3.725
[7] = test system: MCF7 (breast) cancer cell line; experiment: MTT antiproliferative assay, MCF7; assay type: cell-based; conditions: for IC50: Homo sapiens, MCF7, 72 h, read-out: IC50 ± SE, MCF7; for SI (selectivity index), MCF7: IC50 of RPE1 relative to that of MCF7
COX-2 = molecular target: T4, COX-2 (Homo sapiens, UniProt P35354); experiment: COX-2 inhibitor screening kit; assay type: biochemical
T4 sequence (P35354 18-604): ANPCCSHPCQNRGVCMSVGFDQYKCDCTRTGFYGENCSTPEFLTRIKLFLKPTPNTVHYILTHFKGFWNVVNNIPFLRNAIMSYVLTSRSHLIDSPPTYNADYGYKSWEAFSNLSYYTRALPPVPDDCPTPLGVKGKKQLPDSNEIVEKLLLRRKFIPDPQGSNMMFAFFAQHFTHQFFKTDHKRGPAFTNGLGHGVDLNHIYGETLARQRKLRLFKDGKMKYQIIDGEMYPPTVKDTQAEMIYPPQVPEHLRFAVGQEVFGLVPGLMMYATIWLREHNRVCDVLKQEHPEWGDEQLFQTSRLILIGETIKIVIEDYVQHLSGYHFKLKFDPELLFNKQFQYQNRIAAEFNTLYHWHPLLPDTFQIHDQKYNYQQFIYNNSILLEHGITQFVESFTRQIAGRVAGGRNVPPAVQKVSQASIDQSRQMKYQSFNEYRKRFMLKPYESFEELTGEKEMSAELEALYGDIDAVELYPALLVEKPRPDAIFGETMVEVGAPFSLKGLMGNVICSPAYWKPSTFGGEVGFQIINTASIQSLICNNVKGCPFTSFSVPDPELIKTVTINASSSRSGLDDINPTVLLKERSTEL

[8] = test system: A431 (squamous skin) cancer cell line; experiment: MTT antiproliferative assay, A431; assay type: cell-based; conditions: for IC50: Homo sapiens, A-431, 72 h, read-out: IC50 ± SE, A431; for SI (selectivity index), A431: IC50 of RPE1 relative to that of A431
EGFR [9] = molecular target: T3, EGFR; experiment: EGFR Western blot in HCT116; assay type: cell-based; conditions: for EGFR HCT116 % Inhibition: Western blot at MTT-IC50; for EGFR HCT116 RQ (relative quantification): Western blot at MTT-IC50, control RQ 4.0382

Structure (SMILES): CC(=O)Oc1ccc(Cl)cc1C(=O)N1C/C(=C\c2ccccc2)C(=O)/C(=C/c2ccccc2)C1 [Compound 5j, 4-Chloro-2-[3,5-di((E)-benzylidene)-4-oxopiperidine-1-carbonyl]phenyl acetate]
- IC50 [1]: 2620 ± 190 nM
- SI (selectivity index), HCT116 [1]: 3.53
- SI = CC50/IC50 [2]: 5.7
- VEGFR2 HCT116 % Inhibition (VEGFR-2 [3]): 79.0%
- VEGFR2 HCT116 RQ (relative quantification) (VEGFR-2 [3]): 0.8
- IC50 [4]: 9260 ± 750 nM
- IC50 (COX-1): 142 nM
- EGFR MCF7 % Inhibition (EGFR [5]): 65.7%
- EGFR MCF7 RQ (relative quantification) (EGFR [5]): 1.45
- VEGFR2 MCF7 % Inhibition (VEGFR-2 [6]): 49.0%
- VEGFR2 MCF7 RQ (relative quantification) (VEGFR-2 [6]): 1.9
- IC50 [7]: 4500 ± 390 nM
- SI (selectivity index), MCF7 [7]: 2.06
- IC50 (COX-2): 1190 nM
- SI = IC50(COX-1)/IC50(COX-2) (COX-2): 0.120
- IC50 [8]: 2510 ± 180 nM
- SI (selectivity index), A431 [8]: 3.7
- EGFR HCT116 % Inhibition (EGFR [9]): 68.5%
- EGFR HCT116 RQ (relative quantification) (EGFR [9]): 1.273

Structure (SMILES): COc1ccc(/C=C2\CN(C(=O)c3cc(Cl)ccc3OC(C)=O)C/C(=C\c3ccc(OC)cc3)C2=O)cc1 [Compound 5m, 2-[3,5-Bis((E)-4-methoxybenzylidene)-4-oxopiperidine-1-carbonyl]-4-chlorophenyl acetate]
- IC50 [1]: 5940 ± 460 nM
- SI (selectivity index), HCT116 [1]: 1.22
- SI = CC50/IC50 [2]: 138.7
- VEGFR2 HCT116 % Inhibition (VEGFR-2 [3]): 70.4%
- VEGFR2 HCT116 RQ (relative quantification) (VEGFR-2 [3]): 1.13
- IC50 [4]: 7230 ± 510 nM
- IC50 (COX-1): 146 nM
- EGFR MCF7 % Inhibition (EGFR [5]): 62.4%
- EGFR MCF7 RQ (relative quantification) (EGFR [5]): 1.59
- VEGFR2 MCF7 % Inhibition (VEGFR-2 [6]): 47.2%
- VEGFR2 MCF7 RQ (relative quantification) (VEGFR-2 [6]): 1.966
- IC50 [7]: 5060 ± 450 nM
- SI (selectivity index), MCF7 [7]: 1.43
- IC50 (COX-2): 319 nM
- SI = IC50(COX-1)/IC50(COX-2) (COX-2): 0.452–0.467
- SI = IC50(COX-1)/IC50(COX-2) (COX-2; listed as 5 m): 0.458
- IC50 [8]: 3810 ± 290 nM
- SI (selectivity index), A431 [8]: 1.9
- EGFR HCT116 % Inhibition (EGFR [9]): 68.5%
- EGFR HCT116 RQ (relative quantification) (EGFR [9]): 1.273

Structure (SMILES): CC(=O)Oc1ccc(Cl)cc1C(=O)N1C/C(=C\c2ccc(Cl)cc2)C(=O)/C(=C/c2ccc(Cl)cc2)C1 [Compound 5k, 2-[3,5-Bis((E)-4-chlorobenzylidene)-4-oxopiperidine-1-carbonyl]-4-chlorophenyl acetate]
- IC50 [1]: 1970 ± 170 nM
- SI (selectivity index), HCT116 [1]: 3.94
- SI = CC50/IC50 [2]: 10.3
- VEGFR2 HCT116 % Inhibition (VEGFR-2 [3]): 68.6%
- VEGFR2 HCT116 RQ (relative quantification) (VEGFR-2 [3]): 1.2
- IC50 [4]: 7770 ± 560 nM
- IC50 (COX-1): 391 nM
- EGFR MCF7 % Inhibition (EGFR [5]): 69.0%
- EGFR MCF7 RQ (relative quantification) (EGFR [5]): 1.31
- VEGFR2 MCF7 % Inhibition (VEGFR-2 [6]): 59.7%
- VEGFR2 MCF7 RQ (relative quantification) (VEGFR-2 [6]): 1.5
- IC50 [7]: 4070 ± 330 nM
- SI (selectivity index), MCF7 [7]: 1.91
- IC50 (COX-2): 676 nM
- SI = IC50(COX-1)/IC50(COX-2) (COX-2): 0.578
- IC50 [8]: 417 ± 30 nM
- SI (selectivity index), A431 [8]: 18.6
- EGFR HCT116 % Inhibition (EGFR [9]): 63.4%
- EGFR HCT116 RQ (relative quantification) (EGFR [9]): 1.479

Structure (SMILES): COc1ccc(/C=C2\CN(C(=O)c3cc(Cl)ccc3OC(C)=O)C/C(=C\c3ccc(OC)c(OC)c3)C2=O)cc1OC [Compound 5n, 2-[3,5-Bis((E)-3,4-dimethoxybenzylidene)-4-oxopiperidine-1-carbonyl]-4-chlorophenyl acetate]
- IC50 [1]: 1490 ± 170 nM
- SI (selectivity index), HCT116 [1]: 5.30
- SI = CC50/IC50 [2]: 88.9
- VEGFR2 HCT116 % Inhibition (VEGFR-2 [3]): 37.4%
- VEGFR2 HCT116 RQ (relative quantification) (VEGFR-2 [3]): 2.389
- IC50 [4]: 7870 ± 620 nM
- IC50 (COX-1): 163 nM
- EGFR MCF7 % Inhibition (EGFR [5]): 56.8%
- EGFR MCF7 RQ (relative quantification) (EGFR [5]): 1.825
- VEGFR2 MCF7 % Inhibition (VEGFR-2 [6]): 37.2%
- VEGFR2 MCF7 RQ (relative quantification) (VEGFR-2 [6]): 2.338
- IC50 [7]: 4390 ± 400 nM
- SI (selectivity index), MCF7 [7]: 1.79
- IC50 (COX-2): 361 nM
- SI = IC50(COX-1)/IC50(COX-2) (COX-2): 0.452
- IC50 [8]: 444 ± 40 nM
- SI (selectivity index), A431 [8]: 17.7
- EGFR HCT116 % Inhibition (EGFR [9]): 60.1%
- EGFR HCT116 RQ (relative quantification) (EGFR [9]): 1.610

Structure (SMILES): O=c1[nH]cc(F)c(=O)[nH]1 [Compound 5-FU, 5-fluorouracil, reference compound]
- VEGFR2 HCT116 % Inhibition (VEGFR-2 [3]): 75.4%
- EGFR MCF7 % Inhibition (EGFR [5]): 85.8%
- VEGFR2 MCF7 % Inhibition (VEGFR-2 [6]): 67.2%
- EGFR HCT116 % Inhibition (EGFR [9]): 81.2%

Structure (SMILES): COc1ccc(/C=C2\CN(C(=O)c3ccccc3OC(C)=O)C/C(=C\c3ccc(OC)cc3)C2=O)cc1 [Compound 5f, 2-[3,5-Bis((E)-4-methoxybenzylidene)-4-oxopiperidine-1-carbonyl]phenyl acetate]
- IC50 [1]: 6080 ± 490 nM
- SI (selectivity index), HCT116 [1]: 1.63
- SI = CC50/IC50 [2]: 1.2
- VEGFR2 HCT116 % Inhibition (VEGFR-2 [3]): 64.1%
- VEGFR2 HCT116 RQ (relative quantification) (VEGFR-2 [3]): 1.37
- IC50 [4]: 9890 ± 660 nM
- IC50 (COX-1): 147 nM
- EGFR MCF7 % Inhibition (EGFR [5]): 76.3%
- EGFR MCF7 RQ (relative quantification) (EGFR [5]): 1
- VEGFR2 MCF7 % Inhibition (VEGFR-2 [6]): 58.1%
- VEGFR2 MCF7 RQ (relative quantification) (VEGFR-2 [6]): 1.56
- IC50 [7]: 5380 ± 510 nM
- SI (selectivity index), MCF7 [7]: 1.84
- IC50 (COX-2): 315 nM
- SI = IC50(COX-1)/IC50(COX-2) (COX-2): 0.467
- IC50 [8]: 6040 ± 620 nM
- SI (selectivity index), A431 [8]: 1.6
- EGFR HCT116 % Inhibition (EGFR [9]): 62.5%
- EGFR HCT116 RQ (relative quantification) (EGFR [9]): 1.516

Structure (SMILES): CCN(CC)CCCC(C)Nc1ccnc2cc(Cl)ccc12 (stereo not drawn) [Chloroquine, reference compound]
- SI = CC50/IC50 [2]: 15.1

Structure (SMILES): CCN(CCO)CCCC(C)Nc1ccnc2cc(Cl)ccc12 (stereo not drawn) [Hydroxychloroquine, reference compound]
- SI = CC50/IC50 [2]: 9.7
